Experimental data as given in patent US11180496B2 (Daewoong Pharmaceutical Co., Ltd., priority 2017, dated 2021).

Tests used:
BTK = target: T1, BTK (Homo sapiens, UniProt Q06187); assay: BTK inhibitory activity, ADP-Glo + BTK Kinase enzyme system kit (Promega); type: biochemical; conditions: BTK enzyme 1 ng/uL, ATP 10 uM, 15 min preincubation, luminescence, duplicate
T1 construct: purchased Promega
Description: (§1) The inhibitory activity against BTK and ITK of the compounds prepared in Examples above were measured as follows.
(§2) The inhibitory activity against BTK was evaluated using ‘ADP-Glo™+BTK Kinase enzyme system’ kit from Promega. […] 5 uL of substrate and 5 uL of ATP prepared at a final concentration of 10 uM were added to all wells of the plate after completion of the reaction, and allowed to react at 30° C. for 1 hour. All wells of the plate after completion of the reaction were treated with 25 uL of ADP-Glo™ reagent and reacted at 30° C. for 40 minutes. Then, 50 uL of the kinase detection buffer was applied to all wells of the plate, and then the light was blocked and reacted at 30° C. for 30 minutes. For the plate for which all reactions were completed, the luminescence was measured and the results were calculated. The evaluation was performed in duplicate. The respective values of negative and positive controls, depending on whether the enzymes were added without treatment of the compound, were determined, and IC50 was calculated based on the values.

ITK = target: T2, ITK (Homo sapiens, UniProt Q08881); assay: ITK inhibitory activity, ADP-Glo + ITK Kinase enzyme system kit (Promega); type: biochemical; conditions: ITK enzyme 0.4 ng/uL, ATP 25 uM, 15 min preincubation, luminescence, duplicate
T2 construct: purchased Promega
T2 sequence (Q08881 1-620): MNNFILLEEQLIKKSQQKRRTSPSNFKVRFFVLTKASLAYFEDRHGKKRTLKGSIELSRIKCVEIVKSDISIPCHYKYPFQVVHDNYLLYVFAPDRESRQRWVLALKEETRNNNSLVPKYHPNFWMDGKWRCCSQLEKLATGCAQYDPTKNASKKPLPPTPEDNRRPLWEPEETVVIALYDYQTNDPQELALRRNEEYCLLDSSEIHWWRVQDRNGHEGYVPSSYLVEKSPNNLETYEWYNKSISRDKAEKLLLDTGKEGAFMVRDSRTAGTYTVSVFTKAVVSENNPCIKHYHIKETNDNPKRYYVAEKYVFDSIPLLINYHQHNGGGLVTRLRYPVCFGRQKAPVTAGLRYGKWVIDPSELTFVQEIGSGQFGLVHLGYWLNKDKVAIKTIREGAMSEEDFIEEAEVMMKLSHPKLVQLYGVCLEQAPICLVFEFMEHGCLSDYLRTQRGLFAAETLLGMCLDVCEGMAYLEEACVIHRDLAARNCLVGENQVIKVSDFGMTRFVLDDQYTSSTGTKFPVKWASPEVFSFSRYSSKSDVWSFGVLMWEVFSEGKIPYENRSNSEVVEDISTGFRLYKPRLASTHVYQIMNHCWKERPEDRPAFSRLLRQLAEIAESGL
Description: as §1
as §2, with “ITK” for “BTK”, “‘ADP-Glo™+ITK” for “‘ADP-Glo™+BTK”, “25” for “10”

T1 sequence (Q06187 whole entry): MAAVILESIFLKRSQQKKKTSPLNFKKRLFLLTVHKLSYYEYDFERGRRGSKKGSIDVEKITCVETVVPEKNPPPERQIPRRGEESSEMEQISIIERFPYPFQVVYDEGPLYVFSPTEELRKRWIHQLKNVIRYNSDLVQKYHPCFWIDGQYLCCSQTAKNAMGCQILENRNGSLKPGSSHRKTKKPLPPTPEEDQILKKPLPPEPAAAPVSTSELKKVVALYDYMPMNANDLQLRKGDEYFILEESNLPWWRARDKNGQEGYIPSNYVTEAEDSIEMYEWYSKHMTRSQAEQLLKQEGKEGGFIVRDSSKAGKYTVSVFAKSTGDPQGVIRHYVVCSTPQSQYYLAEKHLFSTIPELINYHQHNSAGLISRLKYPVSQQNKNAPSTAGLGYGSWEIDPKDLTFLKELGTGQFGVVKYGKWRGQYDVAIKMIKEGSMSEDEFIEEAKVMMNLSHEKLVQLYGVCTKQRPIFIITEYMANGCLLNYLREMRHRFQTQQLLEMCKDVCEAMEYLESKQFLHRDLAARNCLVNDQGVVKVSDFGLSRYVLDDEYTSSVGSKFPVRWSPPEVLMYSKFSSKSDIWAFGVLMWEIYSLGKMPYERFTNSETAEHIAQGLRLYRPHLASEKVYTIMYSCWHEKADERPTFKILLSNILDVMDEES

SMILES	IC50 (BTK)	IC50 (ITK)
C=CC(=O)N1CCC[C@@H](n2nc(-c3ccc(C(=O)Nc4ccccc4)cc3)c3c(N)ncc(-c4cnn(C)c4)c32)C1 [Example 26, (R)-4-(1-(1-acryloylpiperidin-3-yl)-4-amino-7-(1-methyl-1H-pyrazol-4-yl)-1H-pyrazolo[4,3-c]pyridin-3-yl)-N-phenyl benzamide]	0.0027 µM	0.0593 µM
C=CC(=O)N1CCC[C@@H](n2nc(-c3ccc(C(=O)Nc4ccccc4)cc3)c3c(N)ncc(CO)c32)C1 [Example 27, (R)-4-(1-(1-acryloylpiperidin-3-yl)-4-amino-7-(hydroxymethyl)-1H-pyrazolo[4,3-c]pyridin-3-yl)-N-phenylbenzamide]	0.008 µM	> 0.5 µM
C=CC(=O)N1CCC[C@@H](n2nc(-c3ccc(C(=O)Nc4ccccc4)cc3)c3c(N)ncc(-c4cn[nH]c4)c32)C1 [Example 28, (R)-4-(1-(1-acryloylpiperidin-3-yl)-4-amino-7-(1H-pyrazol-4-yl)-1H-pyrazolo[4,3-c]pyridin-3-yl)-N-phenylbenzamide]	0.0044 µM	0.181 µM
C=CC(=O)N1CCC[C@@H](n2nc(-c3ccc(C(=O)Nc4ccccc4)cc3)c3c(N)ncc(-c4cc[nH]n4)c32)C1 [Example 29, (R)-4-(1-(1-acryloylpiperidin-3-yl)-4-amino-7-(1H-pyrazol-3-yl)-1H-pyrazolo[4,3-c]pyridin-3-yl)-N-phenylbenzamide]	0.0031 µM	0.556 µM
C=CC(=O)N1CCC[C@@H](n2nc(-c3ccc(C(=O)Nc4ccccc4)cc3)c3c(N)ncc(-c4cc[nH]n4)c32)C1 [Example 30, (R)-4-(1-(1-acryloylpiperidin-3-yl)-4-amino-7-(1H-pyrazol-5-yl)-1H-pyrazolo[4,3-c]pyridin-3-yl)-N-phenylbenzamide]	0.003 µM	0.49 µM
C=CC(=O)N1CCC[C@@H](n2nc(-c3ccc(C(=O)Nc4ccccc4)cc3)c3c(N)ncc(-c4ccsc4)c32)C1 [Example 31, (R)-4-(1-(1-acryloylpiperidin-3-yl)-4-amino-7-(thiophen-3-yl)-1H-pyrazolo[4,3-c]pyridin-3-yl)-N-phenylbenzamide]	0.0159 µM	0.376 µM
C=CC(=O)N1CCC[C@@H](n2nc(-c3ccc(C(=O)Nc4ccccc4)cc3)c3c(N)ncc(-c4cnc(C)s4)c32)C1 [Example 32, (R)-4-(1-(1-acryloylpiperidin-3-yl)-4-amino-7-(2-methylthiazol-5-yl)-1H-pyrazolo[4,3-c]pyridin-3-yl)-N-phenylbenzamide]	0.0062 µM	0.2 µM
C=CC(=O)N1CCC[C@@H](n2nc(-c3ccc(C(=O)Nc4ccccc4)cc3)c3c(N)ncc(-c4cnn(C(F)F)c4)c32)C1 [Example 33, (R)-4-(1-(1-acryloylpiperidin-3-yl)-4-amino-7-(1-(difluoromethyl)-1H-pyrazol-4-yl)-1H-pyrazolo[4,3-c]pyridin-3-yl)-N-phenylbenzamide]	0.0102 µM	0.307 µM
C=CC(=O)N1CCC[C@@H](n2nc(-c3ccc(C(=O)Nc4ccccc4)cc3)c3c(N)ncc(-c4cnn(C5CCOCC5)c4)c32)C1 [Example 34, (R)-4-(1-(1-acryloylpiperidin-3-yl)-4-amino-7-(1-(tetrahydro-2H-pyran-4-yl)-1H-pyrazol-4-yl)-1H-pyrazolo[4,3-c]pyridin-3-yl)-N-phenylbenzamide]	0.0023 µM	0.293 µM
C=CC(=O)N1CCC[C@@H](n2nc(-c3ccc(C(=O)Nc4ccccc4)cc3)c3c(N)ncc(-c4cnn(C5CCN(C)CC5)c4)c32)C1 [Example 35, (R)-4-(1-(1-acryloylpiperidin-3-yl)-4-amino-7-(1-(1-methylpiperidin-4-yl)-1H-pyrazol-4-yl)-1H-pyrazolo[4,3-c]pyridin-3-yl)-N-phenylbenzamide]	0.0019 µM	0.061 µM
C=CC(=O)N1CCC[C@@H](n2nc(-c3ccc(C(=O)Nc4ccccc4)cc3)c3c(N)ncc(-c4cnn(CCN(C)C)c4)c32)C1 [Example 36, (R)-4-(1-(1-acryloylpiperidin-3-yl)-4-amino-7-(1-(2-(dimethylamino)ethyl)-1H-pyrazol-4-yl)-1H-pyrazolo[4,3-c]pyridin-3-yl)-N-phenylbenzamide]	0.0015 µM	0.089 µM
C=CC(=O)N1CCC[C@@H](n2nc(-c3ccc(C(=O)Nc4ccccc4)cc3)c3c(N)ncc(-c4cnn(CCN5CCCC5)c4)c32)C1 [Example 37, (R)-4-(1-(1-acryloylpiperidin-3-yl)-4-amino-7-(1-(2-(pyrrolidin-1-yl)ethyl)-1H-pyrazol-4-yl)-1H-pyrazolo[4,3-c]pyridin-3-yl)-N-phenyl benzamide]	0.003 µM	0.0913 µM
C=CC(=O)N1CCC[C@@H](n2nc(-c3ccc(C(=O)Nc4ccccc4)cc3)c3c(N)ncc(-c4cnn(CCN5CCOCC5)c4)c32)C1 [Example 38, (R)-4-(1-(1-acryloylpiperidin-3-yl)-4-amino-7-(1-(2-morpholinoethyl)-1H-pyrazol-4-yl)-1H-pyrazolo[4,3-c]pyridin-3-yl)-N-phenyl benzamide]	0.0026 µM	0.186 µM
C=CC(=O)N1CCC[C@H](n2nc(-c3ccc(C(=O)Nc4ccccn4)cc3)c3c(N)nccc32)C1 [Example 39, (S)-4-(1-(1-acryloylpiperidin-3-yl)-4-amino-1H-pyrazolo[4,3-c]pyridin-3-yl)-N-(pyridin-2-yl)benzamide]	0.0035 µM	> 1 µM
C=CC(=O)N1CCC[C@@H](n2nc(-c3ccc(C(=O)Nc4ccccn4)cc3F)c3c(N)nccc32)C1 [Example 40, (R)-4-(1-(1-acryloylpiperidin-3-yl)-4-amino-1H-pyrazolo[4,3-c]pyridin-3-yl)-3-fluoro-N-(pyridin-2-yl)benzamide]	0.0027 µM	0.0064 µM
C=CC(=O)N1CCC[C@@H](n2nc(-c3ccc(C(=O)Nc4cc(F)ccn4)cc3)c3c(N)nccc32)C1 [Example 41, (R)-4-(1-(1-acryloylpiperidin-3-yl)-4-amino-1H-pyrazolo[4,3-c]pyridin-3-yl)-N-(4-fluoropyridin-2-yl)benzamide]	0.0015 µM	0.0101 µM
C=CC(=O)N1CCC[C@@H](n2nc(-c3ccc(C(=O)N(C(=O)C=C)c4cc(F)ccn4)cc3)c3c(N)nccc32)C1 [Example 42, (R)—N-acryloyl-4-(1-(1-acryloylpiperidin-3-yl)-4-amino-1H-pyrazolo[4,3-c]pyridin-3-yl)-N-(4-fluoropyridin-2-yl)benzamide]	0.0663 µM	0.241 µM
C=CC(=O)N1CCC[C@@H](n2nc(-c3ccc(C(=O)Nc4ccccn4)cc3)c3c(N)ncc(Nc4ccccc4)c32)C1 [Example 43, (R)-4-(1-(1-acryloylpiperidin-3-yl)-4-amino-7-(phenylamino)-1H-pyrazolo[4,3-c]pyridin-3-yl)-N-(pyridin-2-yl)benzamide]	0.0025 µM	0.146 µM
C=CC(=O)N1CCC[C@@H](n2nc(-c3ccc(C(=O)Nc4ccccc4)cc3)c3c(N)ncc(C)c32)C1 [Example 44, (R)-4-(1-(1-acryloylpiperidin-3-yl)-4-amino-7-methyl-1H-pyrazolo[4,3-c]pyridin-3-yl)-N-phenyl benzamide]	> 0.00156 µM	0.105 µM
C=CC(=O)N1CCC[C@@H](n2nc(-c3ccc(C(=O)Nc4ccccn4)cc3)c3c(N)ncc(C)c32)C1 [Example 45, (R)-4-(1-(1-acryloylpiperidin-3-yl)-4-amino-7-methyl-1H-pyrazolo[4,3-c]pyridin-3-yl)-N-(pyridin-2-yl)benzamide]	0.0112 µM	0.0668 µM
